Source: ChEMBL document CHEMBL1759846, “Identification of potent, soluble, and orally active TRPV1 antagonists” (Bioorg Med Chem Lett, 2011)
pIC50: −log10 of the molar value. ≈ marks a conversion by molar mass, not a printed value. Calls of active or inactive are those of the source. No cut-off for these calls is given here.

Tests used:
[1] = Aqueous solubility of the compound in 0.05 M phosphate buffer at pH 7.4 by shake-flask method; assay type: physicochemical
[2] = target: Transient receptor potential cation channel subfamily V member 1 (Homo sapiens, UniProt Q8NER1); assay: Antagonist activity at human TRPV1 expressed in CHO-K1 cells assessed as inhibition of capsaicin-induced intracellular Ca2+ influx by FLIPR assay; assay type: functional, cell-based
[3] = Octanol-water partition coefficient, log D of the compound at pH 7.4 by RP-HPLC analysis; assay type: physicochemical
[4] = Intrinsic clearance in human liver microsomes; assay type: ADME, Microsome
[5] = Plasma protein binding in Wistar rat; assay type: ADME, cell-free; conditions: read-out: PPB (converted)
[6] = Tmax in Wistar rat at 10 mg/kg, po; assay type: ADME, organism-based; design: dose 10 mg/kg, route oral; conditions: in vivo
[7] = Half life in Wistar rat plasma at 10 mg/kg, po and 2 mg/kg, iv; assay type: ADME, organism-based
[8] = Intrinsic clearance in rat liver microsomes; assay type: ADME, Microsome
[9] = Oral bioavailability in Wistar rat at 10 mg/kg; assay type: ADME, organism-based; conditions: in vivo
[10] = Cmax in Wistar rat at 10 mg/kg, po; assay type: ADME, organism-based; design: dose 10 mg/kg, route oral; conditions: in vivo
[11] = Plasma protein binding in human; assay type: ADME, cell-free; conditions: read-out: PPB (converted)
[12] = Clearance in Wistar rat at 10 mg/kg, po and 2 mg/kg, iv; assay type: ADME, organism-based; conditions: in vivo
[13] = Volume of distribution at steady state in Wistar rat at 10 mg/kg, po and 2 mg/kg, iv; assay type: ADME, organism-based; conditions: in vivo, read-out: Vdss
[14] = system: Hepatocyte; assay: Intrinsic clearance in rat hepatocytes; assay type: ADME, cell-based, Liver
[15] = system: Rattus norvegicus; assay: Antiinflammatory activity against capsaicin-induced thermal hyperalgesia in po dosed rat assessed as paw withdrawal latency administered 2 hrs before capsaicin challenge measured after 15 mins; assay type: functional
[16] = system: Rattus norvegicus; assay: Antiinflammatory activity against capsaicin-induced thermal hyperalgesia in rat assessed as paw withdrawal latency at 3 to 30 umol/kg, po administered 2 hrs before capsaicin challenge measured after 15 mins; assay type: functional, organism-based

Transient receptor potential cation channel subfamily V member 1, sequence (Q8NER1 whole entry): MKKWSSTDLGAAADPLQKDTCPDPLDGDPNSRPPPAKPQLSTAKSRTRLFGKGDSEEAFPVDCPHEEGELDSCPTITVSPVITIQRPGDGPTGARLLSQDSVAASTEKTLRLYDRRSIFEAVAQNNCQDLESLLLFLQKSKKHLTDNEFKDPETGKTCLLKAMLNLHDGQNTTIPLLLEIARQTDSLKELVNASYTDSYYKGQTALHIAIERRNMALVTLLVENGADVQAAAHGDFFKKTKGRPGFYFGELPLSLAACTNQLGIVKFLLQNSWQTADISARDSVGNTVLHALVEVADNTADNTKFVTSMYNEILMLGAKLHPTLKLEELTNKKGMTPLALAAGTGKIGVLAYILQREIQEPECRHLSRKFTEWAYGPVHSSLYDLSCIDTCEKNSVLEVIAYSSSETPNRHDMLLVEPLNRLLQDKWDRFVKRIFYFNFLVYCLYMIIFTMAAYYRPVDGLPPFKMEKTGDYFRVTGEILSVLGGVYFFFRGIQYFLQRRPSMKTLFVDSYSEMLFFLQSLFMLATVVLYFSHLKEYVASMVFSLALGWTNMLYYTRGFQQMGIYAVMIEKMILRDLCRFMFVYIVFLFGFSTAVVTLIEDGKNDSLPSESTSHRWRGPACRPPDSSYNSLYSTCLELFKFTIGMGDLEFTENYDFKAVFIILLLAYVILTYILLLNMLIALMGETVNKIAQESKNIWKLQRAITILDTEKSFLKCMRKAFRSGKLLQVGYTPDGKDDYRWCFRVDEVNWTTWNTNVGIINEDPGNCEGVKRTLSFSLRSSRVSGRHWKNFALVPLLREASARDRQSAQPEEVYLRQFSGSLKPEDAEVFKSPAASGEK

| solubility thermodynamic [1] | pIC50 [2] | logD [3] | microsomal CLint [4] | fraction unbound [5] | microsomal CLint [8] | fraction unbound [11] | Compound | other results |
| --- | --- | --- | --- | --- | --- | --- | --- | --- |
| 31 µg/mL (≈ 64.4 µM) | 8.30 | 3.6 | – | – | – | – | CN(Cc1c(C(=O)N[C@@H]2CCC[C@H](O)C2)noc1-c1ccc(C(F)(F)F)cc1)C[C@@H]1CCCO1 | – |
| 82 µg/mL (≈ 170 µM) | 7.10 | 3.7 | – | – | – | – | CN(Cc1c(C(=O)N[C@@H]2CCC[C@H](O)C2)noc1-c1ccc(C(F)(F)F)cc1)C1CCOCC1 | – |
| 80 µg/mL (≈ 182 µM) | 7.60 | 4 | – | – | – | – | CC(C)N(C)Cc1c(C(=O)N[C@@H]2CCC[C@H](O)C2)noc1-c1ccc(C(F)(F)F)cc1 | – |
| 81 µg/mL (≈ 173 µM) | 8.00 | 4.1 | – | – | – | – | CC(C)[C@@H](CO)NCc1c(C(=O)N[C@@H]2CCC[C@H](O)C2)noc1-c1ccc(C(F)(F)F)cc1 | – |
| 79 µg/mL (≈ 168 µM) | 8.60 | 4.2 | 12 µL/min/mg | 0.116 | 41 µL/min/mg | 0.256 | CC(C)[C@H](CO)NCc1c(C(=O)N[C@@H]2CCC[C@H](O)C2)noc1-c1ccc(C(F)(F)F)cc1 | Tmax [6]: 1.5 h; half-life [7]: 4.3 h; bioavailability [9]: 4%; Cmax [10]: 230 nM; clearance [12]: 13.5 mL/min/kg; Vd [13]: 3.5 L/kg |
| 21 µg/mL (≈ 49.6 µM) | 8.50 | 4.5 | 17 µL/min/mg | 0.064 | < 12 µL/min/mg | 0.118 | O=C(N[C@@H]1CCC[C@H](O)C1)c1noc(-c2ccc(C(F)(F)F)cc2)c1CNC1CC1 | CL [14]: < 6 µL/min |
| 30 µg/mL (≈ 60.7 µM) | 5.50 | 3.6 | – | – | – | – | NC(=O)C1CCN(Cc2c(C(=O)N[C@@H]3CCC[C@H](O)C3)noc2-c2ccc(C(F)(F)F)cc2)CC1 | – |
| 3.5 µg/mL (≈ 7.3 µM) | 9.80 | 5.6 | 66 µL/min/mg | 0.037 | 49 µL/min/mg | 0.048 | C[C@H](NCc1c(C(=O)N[C@@H]2CCC[C@H](O)C2)noc1-c1ccc(C(F)(F)F)cc1)C(F)(F)F | – |
| 83 µg/mL (≈ 182 µM) | 8.10 | 4 | – | – | – | – | COCCN(C)Cc1c(C(=O)N[C@@H]2CCC[C@H](O)C2)noc1-c1ccc(C(F)(F)F)cc1 | – |
| 77 µg/mL (≈ 176 µM) | – | 3.5 | 48 µL/min/mg | – | 55 µL/min/mg | – | O=C(N[C@@H]1CCC[C@H](O)C1)c1noc(-c2ccc(C(F)(F)F)cc2)c1CNCC1CC1 | – |
| 89 µg/mL (≈ 190 µM) | 8.50 | 3.5 | 12 µL/min/mg | 0.168 | 93 µL/min/mg | 0.361 | CC(C)(CO)CNCc1c(C(=O)N[C@@H]2CCC[C@H](O)C2)noc1-c1ccc(C(F)(F)F)cc1 | CL [14]: 10 µL/min |
| 87 µg/mL (≈ 176 µM) | 8.00 | 4.7 | – | – | – | – | O=C(N[C@@H]1CCC[C@H](O)C1)c1noc(-c2ccc(C(F)(F)F)cc2)c1CNCC(O)C(F)(F)F (some centres undefined) | – |
| 6.6 µg/mL (≈ 14.1 µM) | 7.90 | 4.5 | – | – | – | – | CN(Cc1c(C(=O)N[C@@H]2CCC[C@H](O)C2)noc1-c1ccc(C(F)(F)F)cc1)[C@@H]1CCOC1 | – |
| 85 µg/mL (≈ 187 µM) | 7.60 | 4.1 | – | – | – | – | CCN(Cc1c(C(=O)N[C@@H]2CCC[C@H](O)C2)noc1-c1ccc(C(F)(F)F)cc1)C(C)C | – |
| 82 µg/mL (≈ 193 µM) | – | 3 | < 12 µL/min/mg | 0.271 | < 12 µL/min/mg | 0.25 | CC(C)NCc1c(C(=O)N[C@@H]2CCC[C@H](O)C2)noc1-c1ccc(C(F)(F)F)cc1 | Tmax [6]: 2 h; half-life [7]: 7.9 h; CL [14]: < 6 µL/min; bioavailability [9]: 20%; Cmax [10]: 720 nM; clearance [12]: 12.5 mL/min/kg; Vd [13]: 5.9 L/kg |
| 78 µg/mL (≈ 177 µM) | 9.00 | 4.3 | 12 µL/min/mg | 0.242 | 107 µL/min/mg | 0.177 | CC(C)CNCc1c(C(=O)N[C@@H]2CCC[C@H](O)C2)noc1-c1ccc(C(F)(F)F)cc1 | Tmax [6]: 2 h; half-life [7]: 4 h; CL [14]: 12 µL/min; MED [15]: 30 µmol/kg; bioavailability [9]: 33%; Cmax [10]: 420 nM; Activity [16]: Active; clearance [12]: 69 mL/min/kg; Vd [13]: 7.6 L/kg |
| 26 µg/mL (≈ 51.6 µM) | 5.90 | 3.6 | – | – | – | – | CN(CCS(C)(=O)=O)Cc1c(C(=O)N[C@@H]2CCC[C@H](O)C2)noc1-c1ccc(C(F)(F)F)cc1 | – |
| 26 µg/mL (≈ 59.4 µM) | 7.80 | 4.3 | – | – | – | – | O=C(N[C@@H]1CCC[C@H](O)C1)c1noc(-c2ccc(C(F)(F)F)cc2)c1CNC1CCC1 | – |
| – | 8.90 | 4.4 | 21 µL/min/mg | – | 144 µL/min/mg | – | O=C(N[C@@H]1CCC[C@H](O)C1)c1noc(-c2ccc(C(F)(F)F)cc2)c1CNCC1CCC1 | – |
| 80 µg/mL (≈ 181 µM) | 6.90 | 3.7 | – | – | – | – | COCCNCc1c(C(=O)N[C@@H]2CCC[C@H](O)C2)noc1-c1ccc(C(F)(F)F)cc1 | – |
